Here are results for one compound from publication PMC4104591 (Structure (London, England : 1993), 2013).

Each structure is given as a SMILES string.

In the assay the target is mutant-MDM2-p53 complex (Homo sapiens, UniProt Q00987, E23G/S22P). Put plainly: Competitive AIDA-NMR antagonist-induced dissociation assay. Format: binding. The following applies: compared with the WT-MDM2-p53 complex.
mutant-MDM2-p53 complex, sequence (Q00987 1-125 S22P/E23G, one chain of several): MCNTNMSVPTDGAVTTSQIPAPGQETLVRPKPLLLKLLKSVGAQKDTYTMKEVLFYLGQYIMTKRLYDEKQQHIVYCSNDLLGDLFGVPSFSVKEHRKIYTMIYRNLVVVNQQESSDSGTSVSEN

As for `COc1ccc(C2=N[C@@H](c3ccc(Cl)cc3)[C@@H](c3ccc(Cl)cc3)N2C(=O)N2CCNC(=O)C2)c(OC(C)C)c1` [nutlin-3], the “effectiveness in dissociating the mutant-MDM2-p53 complex” value is “less effective”.
